Assay results: patent US20100168085A1, “Dopamine and agonists and antagonists thereof for modulation of suppressive activity of CD4+CD25+ regulatory T cells” (YESA RESEARCH AND DEVELOPMENT CO. LTD. at the Weizmann …, priority 2003, published 2010)

Experiments:
CCR-4 mRNA in Treg = settings: 2 h with dopamine
Source text: (§1) (xx) Polymerase chain reaction (PCR). Total RNA was purified with the RNeasy Mini Kit (Qiagen, Germantown, Md.) and transcribed into cDNA using poly dT primers. For PCR the following primers were used: […]

Foxp3 expression in Treg = settings: 2 h exposure, analysed after 30 min or 24 h
Source text: as §1

[1] = tested on: phospho-ERK1/2 in Treg and Teff; test: ERK1/2 phosphorylation (intracellular FACS staining, Western blot); format: cell-based, mouse
Experimental: (ix) FACS analysis of intracellular labeling of phosphorylated form of ERK. T-cell subpopulations were fixed in 1.5% formaldehyde for 10 min at room temperature, washed, resuspended with vortexing in cold 100% methanol, and incubated for 1 h at 4° C. The cells were then washed with PBS containing 1% bovine serum albumin (BSA) and resuspended in 100 μL of PBS/BSA, and 12.5 μL of anti-phosphoERK1 & 2 (BioSource) was added for 20 min at room temperature. The cells were then washed, resuspended in PBS, and analyzed by FACSCalibur (Becton-Dickinson). As a negative control we incubated the phospho-peptide for 20 min with its antibody and then added the mixture to T cells.
(xix) Western blotting. Cells were stimulated for 20 min with anti-CD3 and anti-CD28 antibodies in the presence or absence of dopamine or SKF-38393. Cell lysates were prepared using RIPA lysis buffer (50 mM Tris, pH 8; 0.1% SDS; 0.5% deoxycholate; 1% NP40; 500 mM NaCl; 10 mM MgCl2) and were then kept on ice for 10 min before being vortexed and centrifuged. Supernatants were collected and 5× sample buffer (containing 25 mM Tris pH 6.8, 2% sodium dodecyl sulfate (SDS), 10% glycerol, 0.1% bromophenol blue, 0.5 M β-mercaptoethanol) was added prior to boiling. Cell extracts were separated by SDS-PAGE (10% polyacrylamide), and blotted onto nitrocellulose. Activated ERK1/2 was detected by probing blots with a 1:30,000 dilution of monoclonal antibody. Total ERK protein was detected by using a 1:10,000 dilution of a polyclonal rabbit antibody. The blots were developed by horseradish peroxidase-conjugated anti-mouse or anti-rabbit Fab and ECL (Amersham). Signals were quantified using NIH Image 1.62.
Treg were activated for 20 min in the presence or absence of dopamine (10^−5 M), and were then subjected to intracellular phosphoprotein staining (Perez and Nolan 2002) and analyzed by flow cytometry. […] As a measure of the background nonspecific staining of the phosphorylated ERK we used a specific peptide of phospho-ERK, which competes for binding of the antibody. The intracellular staining procedure for phospho-ERK detection by FACS was validated by the use of Teff incubated with 20 μM phorbol 12-myristate 13-acetate (PMA), known to stimulate the activity of protein kinase C (PKC) (data not shown).

[2] = tested on: BALB/c mice, optic nerve crush injury; settings: 0.4 mg/kg immediately after severe optic nerve crush, two weeks later; vehicle 789±23
Source text: (iv) Retrograde labeling of retinal ganglion cells. Mice were anesthetized and placed in a stereotactic device. The skull was exposed and kept dry and clean. The bregma was identified and marked. The designated point of injection was at a depth of 2 mm from the brain surface, 2.92 mm behind the bregma in the anteroposterior axis and 0.5 mm lateral to the midline. A window was drilled in the scalp above the designated coordinates in the right and left hemispheres. The neurotracer dye FluoroGold (5% solution in saline; Fluorochrome, Denver, Colo.) was applied (1 μL, at a rate of 0.5 μL/min in each hemisphere) using a Hamilton syringe, and the skin over the wound was sutured.
(xxi) Assessment of mouse retinal ganglion cell survival. Mice were given a lethal dose of pentobarbitone (170 mg/kg). Their eyes were enucleated and the retinas were detached and prepared as flattened whole mounts in 4% paraformaldehyde solution. Labeled cells from 4-6 selected fields of identical size (0.7 mm^2) were counted. The selected fields were located at approximately the same distance from the optic disk (0.3 mm) to overcome the variation in RGC density as a function of distance from the optic disk. Fields were counted under the fluorescence microscope (magnification ×800) by observers blinded to the identity of the retinas. The average number of RGCs per field in each retina was calculated.

**Q.** Which results are given for NCCc1ccc(O)c(O)c1 [dopamine, 3,4-dihydroxyphenethylamine]?
**A.** Expression of CCR-4 in Treg (CCR-4 mRNA in Treg): decreased; Foxp3 expression in Treg (Foxp3 expression in Treg): no significant change; Phosphorylated ERK in activated Treg, flow cytometry ([1]; 10^−5 M, activation 20 min): Significantly less phosphorylated ERK; Phospho-ERK1/2 levels in Teff, Western blot ([1]; activation 20 min): did not cause a significant change; Phospho-ERK1/2 in activated Treg, Western blot ([1]; activation with anti-CD3 and anti-CD28 for 20 min): down-regulated; Viable neurons in retina (mean±SD) [2]: 1110±56 /mm^2
